Experimental data reported in US10111875B2, “Pyrrolopyrimidine compounds and uses thereof” (HUTCHISON MEDIPHARMA LIMITED, priority 2010, dated 2018).

Biological target: Recombinant human JAK1 catalytic domain (Homo sapiens (Human), UniProt P23458)
Test: JAK1 kinase assay (Z'-LYTE Tyr 6 Peptide)
Assay type: biochemical
Conditions: JAK1 kinase assay, 0.3 uM concentration; read-out: inhibition percentage (IR %)
Protocol: JAK1/2/3 kinase assay are performed in vitro using Kit-Tyr 6 Peptide (Invitrogen, Cat. No. PV4122). TYK2 kinase assay are performed in vitro using Z′-LYTE™ Kinase Assay Kit-Tyr 3 Peptide (Invitrogen, Cat. No. PV3192). […] All compounds are initially tested at 8 different concentrations (1 μM down to 0.0003 μM) using a 1:3 serial dilution scheme.

Chain of Recombinant human JAK1 catalytic domain (P23458 875-1153): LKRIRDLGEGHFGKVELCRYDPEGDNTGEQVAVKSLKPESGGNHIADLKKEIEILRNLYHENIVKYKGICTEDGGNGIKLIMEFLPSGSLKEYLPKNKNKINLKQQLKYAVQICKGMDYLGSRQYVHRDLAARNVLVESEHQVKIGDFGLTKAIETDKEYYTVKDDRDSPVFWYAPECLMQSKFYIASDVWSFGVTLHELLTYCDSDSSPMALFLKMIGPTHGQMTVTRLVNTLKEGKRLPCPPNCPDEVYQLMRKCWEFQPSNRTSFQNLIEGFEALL

SMILES	inhibition at 0.3 µM [%]
COCC(=O)N(C)[C@@H]1CCN(c2ncnc3[nH]ccc23)C1 [Compound 4]	20 to 50
CN(C(=O)c1cccnc1)[C@@H]1CCN(c2ncnc3[nH]ccc23)C1 [Compound 5]	20 to 50
CN(C(=O)C1(C#N)CC1)[C@@H]1CCN(c2ncnc3[nH]ccc23)C1 [Compound 6]	50 to 100
CN(C(=O)c1cccc(C#N)c1)[C@@H]1CCN(c2ncnc3[nH]ccc23)C1 [Compound 8]	20 to 50
CN([C@@H]1CCN(c2ncnc3[nH]ccc23)C1)S(=O)(=O)c1cccc(C#N)c1 [Compound 10]	50 to 100
CN([C@@H]1CCN(c2ncnc3[nH]ccc23)C1)S(=O)(=O)c1ccc([N+](=O)[O-])cc1 [Compound 11]	20 to 50
COc1ccc(S(=O)(=O)N(C)[C@@H]2CCN(c3ncnc4[nH]ccc34)C2)cc1 [Compound 13]	20 to 50
CN(C)S(=O)(=O)N(C)[C@@H]1CCN(c2ncnc3[nH]ccc23)C1 [Compound 14]	50 to 100
CN([C@@H]1CCN(c2ncnc3[nH]ccc23)C1)S(=O)(=O)N1CCCC1 [Compound 15]	50 to 100
CN(C(=O)Cc1ccc(C#N)cc1)[C@@H]1CCN(c2ncnc3[nH]ccc23)C1 [Compound 20]	50 to 100
CN(C(=O)CCc1c(Cl)cccc1Cl)[C@@H]1CCN(c2ncnc3[nH]ccc23)C1 [Compound 21]	50 to 100
CN(C(=O)Nc1ccc(C(F)(F)F)cc1)[C@@H]1CCN(c2ncnc3[nH]ccc23)C1 [Compound 30]	50 to 100
CN(C(=O)Nc1ccc(C#N)c(F)c1)[C@@H]1CCN(c2ncnc3[nH]ccc23)C1 [Compound 31]	50 to 100
C#CCN(C1CCCC1)[C@@H]1CCN(c2ncnc3[nH]ccc23)C1 [Compound 39, (R)—N-cyclopentyl-N-(prop-2-ynyl)-1-(7H-pyrrolo[2,3-d]pyrimidin-4-yl)pyrrolidin-3-amine]	20 to 50
C=CCN(C1CCCC1)[C@@H]1CCN(c2ncnc3[nH]ccc23)C1 [Compound 40]	50 to 100
COc1nc(N(C)[C@@H]2CCN(c3ncnc4[nH]ccc34)C2)ccc1C#N [Compound 42]	50 to 100
CN([C@@H]1CCN(c2ncnc3[nH]ccc23)C1)S(=O)(=O)c1c(F)cccc1F [Compound 43]	20 to 50
CCN(c1ccc(S(C)(=O)=O)cn1)[C@@H]1CCN(c2ncnc3[nH]ccc23)C1 [Compound 44]	20 to 50
N#CCN(C1CCC1)[C@@H]1CCN(c2ncnc3[nH]ccc23)C1 [Compound 52]	50 to 100
C#CCN(C1CCCCC1)[C@@H]1CCN(c2ncnc3[nH]ccc23)C1 [Compound 54]	20 to 50
N#CCN(C1CC1)[C@@H]1CCN(c2ncnc3[nH]ccc23)C1 [Compound 55]	50 to 100
C#CCN(C1CCOC1)[C@@H]1CCN(c2ncnc3[nH]ccc23)C1 (some centres unmarked) [Compound 56]	50 to 100
CN([C@@H]1CCN(c2ncnc3[nH]ccc23)C1)S(=O)(=O)C1CC1 [Compound 57]	20 to 50
C#CCN(c1ccc(S(C)(=O)=O)cn1)[C@@H]1CCN(c2ncnc3[nH]ccc23)C1 [Compound 58]	20 to 50
CN(c1ccc(S(C)(=O)=O)cn1)[C@@H]1CCN(c2ncnc3[nH]ccc23)C1 [Compound 61]	50 to 100
CN(c1ccc(C(F)(F)F)nn1)[C@@H]1CCN(c2ncnc3[nH]ccc23)C1 [Compound 62]	50 to 100
CN(c1ccnc(Cl)n1)[C@@H]1CCN(c2ncnc3[nH]ccc23)C1 [Compound 63, (R)—N-(1-(7H-pyrrolo[2,3-d]pyrimidin-4-yl)pyrrolidin-3-yl)-2-chloro-N-methylpyrimidin-4-amine]	50 to 100
CN(CCC#N)[C@@H]1CCN(c2ncnc3[nH]ccc23)C1 [Compound 64]	50 to 100
C#CCN(C)[C@@H]1CCN(c2ncnc3[nH]ccc23)C1 [Compound 65]	20 to 50

Other lines, results leading:

inhibition at 0.3 µM [%]	SMILES
50 to 100	CN(c1ccc(C(=O)NC2c3ccccc3C[C@H]2O)cc1F)[C@@H]1CCN(c2ncnc3[nH]ccc23)C1 (single isomer, unassigned) [Compound 204]
50 to 100	CCCC(=O)N(C)[C@@H]1CCN(c2ncnc3[nH]ccc23)C1 [Compound 3]
20 to 50	CN([C@@H]1CCN(c2ncnc3[nH]ccc23)C1)S(=O)(=O)c1ccc(C#N)cc1 [Compound 9]
50 to 100	CN([C@@H]1CCN(c2ncnc3[nH]ccc23)C1)S(=O)(=O)c1cccc([N+](=O)[O-])c1 [Compound 12]
50 to 100	CN(C(=O)Nc1cccc(C#N)c1)[C@@H]1CCN(c2ncnc3[nH]ccc23)C1 [Compound 16, (R)-1-(1-(7H-pyrrolo[2,3-d]pyrimidin-4-yl)pyrrolidin-3-yl)-3-(3-cyanophenyl)-1-methylurea]
50 to 100	CN(C(=O)Nc1ccc(C#N)cc1)[C@@H]1CCN(c2ncnc3[nH]ccc23)C1 [Compound 17]
20 to 50	CN(C(=O)CC1CC1)[C@@H]1CCN(c2ncnc3[nH]ccc23)C1 [Compound 19]
50 to 100	CN(C(=O)CO)[C@@H]1CCN(c2ncnc3[nH]ccc23)C1 [Compound 24]
50 to 100	CN(C(=O)CS(C)(=O)=O)[C@@H]1CCN(c2ncnc3[nH]ccc23)C1 [Compound 27]
50 to 100	CN([C@@H]1CCN(c2ncnc3[nH]ccc23)C1)S(=O)(=O)C1CCCCC1 [Compound 28]
50 to 100	CN(C(=O)N[C@@H]1c2ccccc2C[C@H]1O)[C@@H]1CCN(c2ncnc3[nH]ccc23)C1 [Compound 29, 1-((R)-1-(7H-pyrrolo[2,3-d]pyrimidin-4-yl)pyrrolidin-3-yl)-3-((1R,2R)-2-hydroxy-2,3-dihydro-1H-inden-1-yl)-1-methylurea]
50 to 100	CN(C(=O)Nc1ccc(Cl)cc1)[C@@H]1CCN(c2ncnc3[nH]ccc23)C1 [Compound 33]
20 to 50	CN(C(=O)N1CCC[C@@H]1C(N)=O)[C@@H]1CCN(c2ncnc3[nH]ccc23)C1 [Compound 35]
50 to 100	CN(C(=O)N1CCC[C@@H]1C#N)[C@@H]1CCN(c2ncnc3[nH]ccc23)C1 [Compound 38]
50 to 100	N#Cc1ccc(N(C2CC2)[C@@H]2CCN(c3ncnc4[nH]ccc34)C2)nc1 [Compound 41]
50 to 100	N#CCN(C1CCCC1)[C@@H]1CCN(c2ncnc3[nH]ccc23)C1 [Compound 45]
50 to 100	N#Cc1ccc2c(c1)CCN2C1CCN(c2ncnc3[nH]ccc23)C1 (centres unmarked) [Compound 46]
50 to 100	CCS(=O)(=O)N(C)[C@@H]1CCN(c2ncnc3[nH]ccc23)C1 [Compound 48]
50 to 100	CC(C)S(=O)(=O)N(C)[C@@H]1CCN(c2ncnc3[nH]ccc23)C1 [Compound 49]
50 to 100	CN(C1CCCC1)[C@@H]1CCN(c2ncnc3[nH]ccc23)C1 [Compound 53]
50 to 100	CN(C(=O)N1CCCC1C(F)(F)F)[C@@H]1CCN(c2ncnc3[nH]ccc23)C1 (some centres unmarked) [Compound 59]
50 to 100	CN(c1ccc(C#N)nn1)[C@@H]1CCN(c2ncnc3[nH]ccc23)C1 [Compound 60]
20 to 50	CN(c1ccc(F)cn1)[C@@H]1CCN(c2ncnc3[nH]ccc23)C1 [Compound 66]
50 to 100	CN(c1ccc(Cl)cn1)[C@@H]1CCN(c2ncnc3[nH]ccc23)C1 [Compound 67]
